In ChEMBL document CHEMBL6109143, “Adamantane-Quinoxalone Hybrids: Precision Chemotypes and Their Molecular Mechanisms in Acute Myeloid Leukemia” (J Med Chem, 2025):
Several values for one entry are separate records, joined by “and”; a condition that tells them apart may be missing. Equal entries are not always repeated. Activity calls are given as the source filed them. The calls are words filed in the database; no cut-off is given here.

Legend:
Kasumi 1 [1] = test: Cytotoxicity against human Kasumi 1 cells assessed as reduction in cell viability at 50 uM incubated for 24 hrs by MTT assay relative to control; type: functional
Kasumi 1 [2] = test: Cytotoxicity against human Kasumi 1 cells harboring chromosomal translocation(8;21) assessed as reduction in cell viability incubated for 24 hrs by MTT assay; type: functional, cell-based; details: Kasumi 1, 24 h
THP-1 = test: Cytotoxicity against human THP-1 cells harboring chromosomal translocation(9;11) assessed as reduction in cell viability incubated for 24 hrs by MTT assay; type: functional, cell-based; details: THP-1, 24 h
CAL-27 = test: Cytotoxicity against human CAL-27 cells assessed as cell viability at 1 to 50 uM incubated for 24 hrs by MTT assay; type: functional, cell-based; details: dose 1-50 µM
MDA-MB-231 = test: Cytotoxicity against human MDA-MB-231 cells assessed as cell viability at 1 to 50 uM incubated for 24 hrs by MTT assay; type: functional, cell-based; details: dose 1-50 µM
A549 = test: Cytotoxicity against human A549 cells assessed as cell viability at 1 to 50 uM incubated for 24 hrs by MTT assay; type: functional, cell-based; details: dose 1-50 µM
ARPE-19 = test: Cytotoxicity against human ARPE-19 cells assessed as reduction in cell viability incubated for 24 hrs by MTT assay; type: toxicity, cell-based; details: arpe-19, 24 h
MCF-10A = test: Cytotoxicity against human MCF-10A cells assessed as cell viability incubated for 24 hrs by MTT assay; type: toxicity, cell-based
[3] = Cytotoxicity against human Oral epithelial cells assessed as cell viability incubated for 24 hrs by MTT assay; type: toxicity, cell-based
Kasumi 1 [4] = test: Induction of cell cycle arrest in human Kasumi 1 cells assessed as increase in cells at G2/M phase at IC50 concentration incubated for 24 hrs by PI staining based flow cytometric analysis; type: functional
Kasumi 1 [5] = test: Induction of cell cycle arrest in human Kasumi 1 cells assessed as decrease in cells at S phase at IC50 concentration incubated for 24 hrs by PI staining based flow cytometric analysis; type: functional
Kasumi 1 [6] = test: Induction of cell cycle arrest in human Kasumi 1 cells assessed as increase in cells at G1 phase at IC50 concentration incubated for 24 hrs by PI staining based flow cytometric analysis (reference value: 66.25 %); type: functional
Kasumi 1 [7] = test: Induction of cell cycle arrest in human Kasumi 1 cells assessed as increase in cells at S phase at IC50 concentration incubated for 24 hrs by PI staining based flow cytometric analysis (reference value: 27.09 %); type: functional
Kasumi 1 [8] = test: Induction of cell cycle arrest in human Kasumi 1 cells assessed as increase in cells at G2 phase at IC50 concentration incubated for 24 hrs by PI staining based flow cytometric analysis (reference value: 6.65 %); type: functional
Kasumi 1 [9] = test: Induction of apoptosis in human Kasumi 1 cells assessed as viable cells at IC50 concentration incubated for 24 hrs by Annexin V/PI staining based flow cytometric analysis (reference value: 95.43 %); type: functional
Kasumi 1 [10] = test: Induction of apoptosis in human Kasumi 1 cells assessed as early apoptotic cells at IC50 concentration incubated for 24 hrs by Annexin V/PI staining based flow cytometric analysis (reference value: 2.38 %); type: functional
Kasumi 1 [11] = test: Induction of apoptosis in human Kasumi 1 cells assessed as late apoptotic cells at IC50 concentration incubated for 24 hrs by Annexin V/PI staining based flow cytometric analysis (reference value: 2.07 %); type: functional
Kasumi 1 [12] = test: Induction of apoptosis in human Kasumi 1 cells assessed as necrotic apoptotic cells at IC50 concentration incubated for 24 hrs by Annexin V/PI staining based flow cytometric analysis (reference value: 0.12 %); type: functional
Kasumi 1 [13] = test: Downregulation of MYCN gene expression in human Kasumi 1 cells at IC50 concentration incubated for 24 hrs by RNA sequencing analysis; type: functional, cell-based
Kasumi 1 [14] = test: Downregulation of BCL6 gene expression in human Kasumi 1 cells at IC50 concentration incubated for 24 hrs by RNA sequencing analysis; type: functional, cell-based
Kasumi 1 [15] = test: Downregulation of PIM1 gene expression in human Kasumi 1 cells at IC50 concentration incubated for 24 hrs by RNA sequencing analysis; type: functional, cell-based
Kasumi 1 [16] = test: Downregulation of CDK1 protein expression in human Kasumi 1 cells at IC50 concentration incubated for 24 hrs by LC-MS/MS analysis; type: functional, cell-based
Kasumi 1 [17] = test: Downregulation of MELK protein expression in human Kasumi 1 cells at IC50 concentration incubated for 24 hrs by LC-MS/MS analysis; type: functional, cell-based
Kasumi 1 [18] = test: Downregulation of UGFR1 gene expression in human Kasumi 1 cells at IC50 concentration incubated for 24 hrs by RNA sequencing analysis; type: functional, cell-based
Kasumi 1 [19] = test: Downregulation of HMMR gene expression in human Kasumi 1 cells at IC50 concentration incubated for 24 hrs by RNA sequencing analysis; type: functional, cell-based
Kasumi 1 [20] = test: Downregulation of CD109 gene expression in human Kasumi 1 cells at IC50 concentration incubated for 24 hrs by RNA sequencing analysis; type: functional, cell-based
Kasumi 1 [21] = test: Upregulation of NR5A1 gene expression in human Kasumi 1 cells at IC50 concentration incubated for 24 hrs by RNA sequencing analysis; type: functional, cell-based
Kasumi 1 [22] = test: Upregulation of KLF2 gene expression in human Kasumi 1 cells at IC50 concentration incubated for 24 hrs by RNA sequencing analysis; type: functional, cell-based
Kasumi 1 [23] = test: Upregulation of DACH1 gene expression in human Kasumi 1 cells at IC50 concentration incubated for 24 hrs by RNA sequencing analysis; type: functional, cell-based
Kasumi 1 [24] = test: Upregulation of CSF3R gene expression in human Kasumi 1 cells at IC50 concentration incubated for 24 hrs by RNA sequencing analysis; type: functional, cell-based
Kasumi 1 [25] = test: Upregulation of interferon-alpha response related genes in human Kasumi 1 cells at IC50 concentration incubated for 24 hrs by RNA sequencing analysis; type: functional, cell-based
Kasumi 1 [26] = test: Upregulation of interferon-gamma response related genes in human Kasumi 1 cells at IC50 concentration incubated for 24 hrs by RNA sequencing analysis; type: functional, cell-based
Kasumi 1 [27] = test: Downregulation of KRAS signaling pathway related genes in human Kasumi 1 cells at IC50 concentration incubated for 24 hrs by RNA sequencing analysis; type: functional, cell-based
Kasumi 1 [28] = test: Downregulation of E2F target related genes in human Kasumi 1 cells at IC50 concentration incubated for 24 hrs by RNA sequencing analysis; type: functional, cell-based
Kasumi 1 [29] = test: Downregulation of G2M checkpoint related genes in human Kasumi 1 cells at IC50 concentration incubated for 24 hrs by RNA sequencing analysis; type: functional, cell-based
Kasumi 1 [30] = test: Downregulation of TNF-alpha signaling related genes in human Kasumi 1 cells at IC50 concentration incubated for 24 hrs by RNA sequencing analysis; type: functional, cell-based
Kasumi 1 [31] = test: Downregulation of KRAS signaling related genes in human Kasumi 1 cells at IC50 concentration incubated for 24 hrs by RNA sequencing analysis; type: functional, cell-based
Kasumi 1 [32] = test: Downregulation of estrogen pathway related genes in human Kasumi 1 cells at IC50 concentration incubated for 24 hrs by RNA sequencing analysis; type: functional, cell-based
Kasumi 1 [33] = test: Effect on oxidative phosphorylation related protein expression in human Kasumi 1 cells by GSEA; type: functional, cell-based
Kasumi 1 [34] = test: Effect on MYC target related protein expression in human Kasumi 1 cells by GSEA; type: functional, cell-based
Kasumi 1 [35] = test: Effect on E2F target related protein expression in human Kasumi 1 cells by GSEA; type: functional, cell-based
Kasumi 1 [36] = test: Effect on glycolysis pathway related protein expression in human Kasumi 1 cells by GSEA; type: functional, cell-based
Kasumi 1 [37] = test: Effect on mTORC1 signaling related protein expression in human Kasumi 1 cells by GSEA; type: functional, cell-based
Kasumi 1 [38] = test: Effect on hypoxia pathway related protein expression in human Kasumi 1 cells by GSEA; type: functional, cell-based
Kasumi 1 [39] = test: Effect on adipogenesis pathway related protein expression in human Kasumi 1 cells by GSEA; type: functional, cell-based

CCCCCCN1C(=O)C(C23CC4CC(CC(C4)C2)C3)Nc2ccccc21 (configuration not stated)
Activity (Kasumi 1 [1]): >30%

Cc1cc2c(cc1C)N(Cc1ccccc1)C(=O)C(C13CC4CC(CC(C4)C1)C3)N2 (configuration not stated)
Activity (Kasumi 1 [1]): >30%

O=C1C(C23CC4CC(CC(C4)C2)C3)Nc2ccccc2N1Cc1ccc(F)cc1 (configuration not stated)
Activity (Kasumi 1 [1]): >30%

CSc1ccc(CN2C(=O)C(C34CC5CC(CC(C5)C3)C4)Nc3ccccc32)cc1 (configuration not stated)
Activity (Kasumi 1 [1]): >30%

Cc1ccccc1CN1C(=O)C(C23CC4CC(CC(C4)C2)C3)Nc2ccccc21 (configuration not stated)
Activity (Kasumi 1 [1]): >30%

O=C1C(C23CC4CC(CC(C4)C2)C3)Nc2ccccc2N1Cc1ccccc1 (configuration not stated)
Activity (Kasumi 1 [1]): >30%

Cc1ccc(CN2C(=O)C(C34CC5CC(CC(C5)C3)C4)Nc3ccccc32)cc1 (configuration not stated)
Activity (Kasumi 1 [1]): >30%

C=CCCCCN1C(=O)C(C23CC4CC(CC(C4)C2)C3)Nc2ccccc21 (configuration not stated)
Activity (Kasumi 1 [1]): >30%

CC(C)CCN1C(=O)C(C23CC4CC(CC(C4)C2)C3)Nc2ccccc21 (configuration not stated)
Activity (Kasumi 1 [1]): >30%

O=C1C(C23CC4CC(CC(C4)C2)C3)Nc2ccccc2N1c1ccc(-c2ccccc2)cc1 (configuration not stated)
Activity (Kasumi 1 [1]): >30%

C=CCN1C(=O)C(C23CC4CC(CC(C4)C2)C3)Nc2ccccc21 (configuration not stated)
Activity (Kasumi 1 [1]): <30% | IC50 (Kasumi 1 [2]): 37.5 µM | IC50 (THP-1): > 50 µM

CCCCCCCCCCCCN1C(=O)C(C23CC4CC(CC(C4)C2)C3)Nc2ccccc21 (configuration not stated)
Activity (Kasumi 1 [1]): >30%

O=C1C(C23CC4CC(CC(C4)C2)C3)Nc2ccccc2N1Cc1cccc(-c2ccccc2)c1 (configuration not stated)
Activity (Kasumi 1 [1]): >30%

O=C1C(C23CC4CC(CC(C4)C2)C3)Nc2ccccc2N1c1ccc(OC(F)(F)F)cc1 (configuration not stated)
Activity (Kasumi 1 [1]): >30%

CCN1C(=O)C(C23CC4CC(CC(C4)C2)C3)Nc2ccccc21 (configuration not stated)
Activity (Kasumi 1 [1]): >30%

CN1C(=O)C(C23CC4CC(CC(C4)C2)C3)Nc2ccccc21 (configuration not stated)
Activity (Kasumi 1 [1]): >30%

Cc1ccc(CN2C(=O)C(C34CC5CC(CC(C5)C3)C4)Nc3cc(-c4ccc5c(c4)NC(C46CC7CC(CC(C7)C4)C6)C(=O)N5Cc4ccc(C)cc4)ccc32)cc1 (configuration not stated)
Activity (Kasumi 1 [1]): >30%

O=C1C(C23CC4CC(CC(C4)C2)C3)Nc2ccccc2N1Cc1ccc(Br)cc1 (configuration not stated)
Activity (Kasumi 1 [1]): >30%

O=C1C(C23CC4CC(CC(C4)C2)C3)Nc2cc3ccccc3cc2N1Cc1ccccc1 (configuration not stated)
Activity (Kasumi 1 [1]): >30%

O=C1C(C23CC4CC(CC(C4)C2)C3)Nc2ccccc2N1CC1CC1 (configuration not stated)
Activity (Kasumi 1 [1]; 24 h, 50 µM): <30% and >30% | IC50 (Kasumi 1 [2]): 47 µM | IC50 (THP-1): > 50 µM

CC(C)CCCC(C)CCN1C(=O)C(C23CC4CC(CC(C4)C2)C3)Nc2ccccc21 (configuration not stated)
Activity (Kasumi 1 [1]): >30%

O=C1C(C23CC4CC(CC(C4)C2)C3)Nc2ccccc2N1c1ccc2ccccc2c1 (configuration not stated)
Activity (Kasumi 1 [1]): >30%

O=C1C(C23CC4CC(CC(C4)C2)C3)Nc2cc(Cl)c(Cl)cc2N1Cc1ccccc1 (configuration not stated)
Activity (Kasumi 1 [1]): >30%

O=C1C(C23CC4CC(CC(C4)C2)C3)Nc2ccccc2N1c1ccccc1 (configuration not stated)
Activity (CAL-27): inactive | Activity (MDA-MB-231): inactive | Activity (A549): inactive | Activity (Kasumi 1 [1]): <30% | Activity (ARPE-19): Non-toxic | Activity (MCF-10A): Non-toxic | Activity [3]: Non-toxic | IC50 (Kasumi 1 [2]): 2.09 µM | IC50 (THP-1): 40.9 µM | Activity (Kasumi 1 [4]): Active | Activity (Kasumi 1 [5]): Active | Activity (Kasumi 1 [6]): 68.99% | Activity (Kasumi 1 [7]): 18.69% | Activity (Kasumi 1 [8]): 12.31% | Activity (Kasumi 1 [9]): 83.88% | Activity (Kasumi 1 [10]): 10.74% | Activity (Kasumi 1 [11]): 5.37% | Activity (Kasumi 1 [12]): 0.02% | Activity (Kasumi 1 [13]): Active | Activity (Kasumi 1 [14]): Active | Activity (Kasumi 1 [15]): Active | Activity (Kasumi 1 [16]): Active | Activity (Kasumi 1 [17]): Active | Activity (Kasumi 1 [18]): Active | Activity (Kasumi 1 [19]): Active | Activity (Kasumi 1 [20]): Active | Activity (Kasumi 1 [21]): Active | Activity (Kasumi 1 [22]): Active | Activity (Kasumi 1 [23]): Active | Activity (Kasumi 1 [24]): Active | Activity (Kasumi 1 [25]): Active | Activity (Kasumi 1 [26]): Active | Activity (Kasumi 1 [27]): Active | Activity (Kasumi 1 [28]): Active | Activity (Kasumi 1 [29]): Active | Activity (Kasumi 1 [30]): Active | Activity (Kasumi 1 [31]): Active | Activity (Kasumi 1 [32]): Active | Activity (Kasumi 1 [33]): Active | Activity (Kasumi 1 [34]): Active | Activity (Kasumi 1 [35]): Active | Activity (Kasumi 1 [36]): Active | Activity (Kasumi 1 [37]): Active | Activity (Kasumi 1 [38]): Active | Activity (Kasumi 1 [39]): Active
